Here are results for 15 molecules from PubChem BioAssay AID200 (DTP/NCI, 2004).

The test system of this assay is B6C3F1 mice, B16 melanoma ip, median survival T/C. The assay is described as follows: NCI In Vivo Anticancer Drug Screen. Data for tumor model B16 Melanoma (intraperitoneal) in B6C3F1 mice. To be noted: endpoint: median survival time, higher = longer survival. As for the experimental part: The antitumor activity of compounds was measured in mice bearing transplantable tumors. Survival or tumor size were measured and the results are expressed as the measurement made in the treated group (T) divided by the measurement made in the vehicle treated control group (C). The tumor model used in this assay is B16 Melanoma (intraperitoneal) in B6C3F1 mice

[1] abbreviates: dose: 1.56 mg/kg/injection, schedule: Q01DX009 (ip), vehicle: saline.
Setting [2] is: dose: 3.12 mg/kg/injection, schedule: Q01DX009 (ip), vehicle: saline.
[3] abbreviates: dose: 3.13 mg/kg/injection, schedule: Q01DX009 (ip), vehicle: saline.
Where [4] appears, read: dose: 6.25 mg/kg/injection, schedule: Q01DX009 (ip), vehicle: saline.
The mark [5] stands for this setting: dose: 12.5 mg/kg/injection, schedule: Q01DX009 (ip), vehicle: saline.
The mark [6] stands for this setting: dose: 25.0 mg/kg/injection, schedule: Q01DX009 (ip), vehicle: saline.
The mark [7] stands for this setting: dose: 25.0 mg/kg/injection, schedule: Q01DX009 (ip), vehicle: saline with Tween-80.
Where [8] appears, read: dose: 50.0 mg/kg/injection, schedule: Q01DX009 (ip), vehicle: saline with Tween-80.
[9] abbreviates: dose: 25.0 mg/kg/injection, schedule: Q01DX009 (ip), vehicle: Klucel (hydroxypropylcellulose) (HPC).
Setting [10] is: dose: 50.0 mg/kg/injection, schedule: Q01DX009 (ip), vehicle: Klucel (hydroxypropylcellulose) (HPC).
The mark [11] stands for this setting: dose: 50.0 mg/kg/injection, schedule: Q01DX009 (ip), vehicle: saline.
Where [12] appears, read: dose: 100.0 mg/kg/injection, schedule: Q01DX009 (ip), vehicle: saline.

Where “and” joins values, the source holds several entries; their conditions need not be identical. Identical values can stand only once. Toxic doses and inconclusive results are not listed.

As to `COc1cc(O)c2c(O)c3c(c4c2c1[C@]1(C4)C(C)=CCCC1(C)C)[C@H](O)[C@@]1(O)CC(=O)C(C(N)=O)=C(O)[C@@]1(O)C3=O`, the T/C runs as follows: (dose: 1.56 mg/kg/injection, schedule: Q01DX009 (ip), vehicle: saline with Tween-80) 90 % of control; (dose: 3.12 mg/kg/injection, schedule: Q01DX009 (ip), vehicle: saline with Tween-80) 106 % of control; (dose: 6.25 mg/kg/injection, schedule: Q01DX009 (ip), vehicle: saline with Tween-80) 117 % of control.

Turning to `CC1=C(O)C(=O)[C@@H]2O[C@@H]2C1=O`, the T/C is 87 % of control and 92 % of control (dose: 0.78 mg/kg/injection, schedule: Q01DX009 (ip), vehicle: saline); 91 % of control and 98 % of control under setting [1]; 103 % of control under setting [2]; 107 % of control under setting [3]; 112 % of control and 94 % of control under setting [4]; 108 % of control and 106 % of control under setting [5].

In the case of `COc1cc(Cl)ccc1C`, the T/C (dose: 9.37 mg/kg/injection, schedule: Q01DX009 (ip), vehicle: Klucel (hydroxypropylcellulose) (HPC)) was 100 % of control; the T/C (dose: 18.75 mg/kg/injection, schedule: Q01DX001 (ip), vehicle: Klucel (hydroxypropylcellulose) (HPC)) was 109 % of control; the T/C (dose: 18.75 mg/kg/injection, schedule: Q01DX009 (ip), vehicle: Klucel (hydroxypropylcellulose) (HPC)) is 100 % of control; the T/C (dose: 37.5 mg/kg/injection, schedule: Q01DX001 (ip), vehicle: Klucel (hydroxypropylcellulose) (HPC)) is 107 % of control; the T/C (dose: 37.5 mg/kg/injection, schedule: Q01DX009 (ip), vehicle: Klucel (hydroxypropylcellulose) (HPC)) is 98 % of control; the T/C (dose: 75.0 mg/kg/injection, schedule: Q01DX001 (ip), vehicle: Klucel (hydroxypropylcellulose) (HPC)) was 115 % of control. For the same molecule, the T/C by setting is: (dose: 75.0 mg/kg/injection, schedule: Q01DX009 (ip), vehicle: Klucel (hydroxypropylcellulose) (HPC)) 101 % of control; (dose: 150.0 mg/kg/injection, schedule: Q01DX001 (ip), vehicle: Klucel (hydroxypropylcellulose) (HPC)) 110 % of control; (dose: 150.0 mg/kg/injection, schedule: Q01DX009 (ip), vehicle: Klucel (hydroxypropylcellulose) (HPC)) 100 % of control; (dose: 300.0 mg/kg/injection, schedule: Q01DX001 (ip), vehicle: Klucel (hydroxypropylcellulose) (HPC)) 111 % of control; (dose: 300.0 mg/kg/injection, schedule: Q01DX009 (ip), vehicle: Klucel (hydroxypropylcellulose) (HPC)) 95 % of control.

As to `O=C(NO)c1ccc(O)c(O)c1`, the T/C was 106 % of control (dose: 22.5 mg/kg/injection, schedule: Q03HX024 (ip), vehicle: water); 100 % of control (dose: 25.0 mg/kg/injection, schedule: Q01DX009 (ip), vehicle: water); 111 % of control (dose: 45.0 mg/kg/injection, schedule: Q03HX024 (ip), vehicle: water); 109 % of control and 100 % of control (dose: 50.0 mg/kg/injection, schedule: Q01DX009 (ip), vehicle: water); 110 % of control (dose: 60.0 mg/kg/injection, schedule: Q01DX009 (ip), vehicle: water); 116 % of control (dose: 90.0 mg/kg/injection, schedule: Q03HX024 (ip), vehicle: water). Besides, the T/C by setting is: (dose: 100.0 mg/kg/injection, schedule: Q01DX009 (ip), vehicle: water) 111 % of control and 116 % of control and 99 % of control; (dose: 116.0 mg/kg/injection, schedule: Q01DX009 (ip), vehicle: other) 116 % of control; (dose: 120.0 mg/kg/injection, schedule: Q01DX009 (ip), vehicle: water) 110 % of control; (dose: 176.0 mg/kg/injection, schedule: Q01DX009 (ip), vehicle: other) 120 % of control; (dose: 176.0 mg/kg/injection, schedule: Q01DX009 (ip), vehicle: water) 120 % of control; (dose: 180.0 mg/kg/injection, schedule: Q03HX024 (ip), vehicle: water) 119 % of control. Moreover, the T/C was 112 % of control and 123 % of control (dose: 200.0 mg/kg/injection, schedule: Q01DX009 (ip), vehicle: water); 87 % of control (dose: 270.0 mg/kg/injection, schedule: Q03HX024 (ip), vehicle: water).

On to `Nc1ccn(C2OC(CO)C(O)C2O)c(=O)n1` (stereo unspecified), for which the T/C is, setting by setting: under setting [6], 120 % of control; (dose: 2400.0 mg/kg/injection, schedule: Q01DX009 (ip), vehicle: saline with Tween-80) 110 % of control.

In the case of `CCS(=O)(=O)OCCCCOS(=O)(=O)CC`, the T/C was 97 % of control under setting [7] and 100 % of control under setting [8].

For `Nc1nc(=S)c2ncn(C3OC(CO)CC3O)c2[nH]1` (stereo unspecified), the T/C (dose: 5.0 mg/kg/injection, schedule: Q01DX009 (ip), vehicle: saline) was 110 % of control; the T/C (dose: 10.0 mg/kg/injection, schedule: Q01DX009 (ip), vehicle: saline) is 122 % of control; the T/C (dose: 40.0 mg/kg/injection, schedule: Q01DX009 (ip), vehicle: saline) is 94 % of control.

On to `CC(C)CC(=O)NC(C(=O)NC(C(=O)NC(CC(C)C)C(O)CC(=O)NC(C)C(=O)NC(CC(C)C)C(O)CC(=O)O)C(C)C)C(C)C` (stereo unspecified), for which the T/C was 102 % of control (dose: 6.25 mg/kg/injection, schedule: Q01DX009 (ip), vehicle: Klucel (hydroxypropylcellulose) (HPC)); 93 % of control (dose: 12.5 mg/kg/injection, schedule: Q01DX009 (ip), vehicle: Klucel (hydroxypropylcellulose) (HPC)); 96 % of control under setting [9]; 88 % of control under setting [10].

Regarding `NC(CCC(=O)Nc1ccc(O)cc1)C(=O)O` (stereo unspecified), the T/C is 117 % of control under setting [11]; 120 % of control under setting [12]; 103 % of control (dose: 200.0 mg/kg/injection, schedule: Q01DX009 (ip), vehicle: saline); 124 % of control (dose: 400.0 mg/kg/injection, schedule: Q01DX009 (ip), vehicle: saline).

For the molecule `CC(=O)OCC1(C)NC(=O)c2ccccc2O1` (stereo unspecified), the T/C reads like this: (dose: 12.5 mg/kg/injection, schedule: Q01DX009 (ip), vehicle: saline with Tween-80) 88 % of control and 103 % of control; under setting [7], 114 % of control and 103 % of control; under setting [8], 95 % of control and 100 % of control; (dose: 100.0 mg/kg/injection, schedule: Q01DX009 (ip), vehicle: saline with Tween-80) 92 % of control and 93 % of control; (dose: 200.0 mg/kg/injection, schedule: Q01DX009 (ip), vehicle: saline with Tween-80) 90 % of control; (dose: 400.0 mg/kg/injection, schedule: Q01DX009 (ip), vehicle: saline with Tween-80) 86 % of control.

With `Cc1c2c(ccc3ccccc32)c[n+]2ccccc12`, the T/C is 89 % of control under setting [1]; 103 % of control under setting [2]; 105 % of control under setting [4]; 108 % of control under setting [5]; 108 % of control under setting [6].

Regarding `C=C1C(=O)OC2CC(C)C3C4OC4C(O)C3(C)C(O)C12` (stereo unspecified), the T/C is, setting by setting: (dose: 0.4 mg/kg/injection, schedule: Q01DX009 (ip), vehicle: saline) 104 % of control; (dose: 0.8 mg/kg/injection, schedule: Q01DX009 (ip), vehicle: saline) 110 % of control; under setting [1], 108 % of control; under setting [3], 124 % of control.

Take `CCCCC(C)(CCN)CCCC`: the T/C was 105 % of control under setting [6], 122 % of control under setting [11] and 101 % of control under setting [12].

On to `CCC/C(=N/NC(N)=O)C(OC)OC`, for which the T/C (dose: 37.5 mg/kg/injection, schedule: Q01DX009 (ip), vehicle: saline) is 110 % of control; the T/C (dose: 75.0 mg/kg/injection, schedule: Q01DX009 (ip), vehicle: saline) is 98 % of control; the T/C (dose: 150.0 mg/kg/injection, schedule: Q01DX009 (ip), vehicle: saline) is 106 % of control.

For the molecule `NC(N)=NS(=O)(=O)c1ccc(NCc2c3ccccc3nc3ccccc23)cc1`, the T/C by setting is: under setting [9], 159 % of control; under setting [10], 184 % of control; (dose: 100.0 mg/kg/injection, schedule: Q01DX009 (ip), vehicle: Klucel (hydroxypropylcellulose) (HPC)) 213 % of control; (dose: 200.0 mg/kg/injection, schedule: Q01DX009 (ip), vehicle: Klucel (hydroxypropylcellulose) (HPC)) 238 % of control; (dose: 400.0 mg/kg/injection, schedule: Q01DX009 (ip), vehicle: Klucel (hydroxypropylcellulose) (HPC)) 238 % of control; (dose: 800.0 mg/kg/injection, schedule: Q01DX009 (ip), vehicle: Klucel (hydroxypropylcellulose) (HPC)) 250 % of control.
